The experiment concerns the target T1, BCL6 (Homo sapiens, UniProt P41182).
T1 construct: endogenous in cells; host or cells: T47D breast cancer epithelial cells
As to the kind of experiment: Immunofluorescence protocol for high content imaging of BCL6 (degradation) in T47D cells, 3 days compound treatment. Type of experiment: cell-based. As to conditions: T47D cells, 3 days compound treatment; for DC50: read-out: Mean DC50 (nM)* category; for Dmax: read-out: Mean Dmax (%)** category. Put shortly:
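Read-out: high-content imaging of anti-BCL6 immunofluorescence (Alexa-488 secondary) with CellMask and Hoechst counterstains, 10×, 4 fields/well. Cells had 3 days of compound exposure at 37° C, 5% CO2, 11-point 3-fold series from a final top of 0.1 or 1 μM.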

Where only a bound is given, the exact number is not on record here.

As to `CNC(=O)COc1cc2cc(Nc3nc(N4CCC(CN5CCC6(CCN(c7ccc8c(c7)CN(C7CCC(=O)NC7=O)C8=O)C6=O)C5)CC4)ncc3Cl)ccc2n(C(C)C)c1=O` (centres unmarked) [Compound 48, 2-{[6-({5-chloro-2-[4-({7-[2-(2,6-dioxopiperidin-3-yl)-1-oxo-2,3-dihydro-1H-isoindol-5-yl]-6-oxo-2,7-diazaspiro[4.4]nonan-2-yl}methyl)piperidin-1-yl]pyrimidin-4-yl}amino)-2-oxo-1-(propan-2-yl)-1,2-dihydroquinolin-3-yl]oxy}-N-methylacetamide], the DC50 is less than 10 nM and the maximal degradation (Dmax) was 50 to 70%.
For `CNC(=O)COc1cc2cc(Nc3nc(N4CCC(OC5CCC6(CC5)CN(c5ccc7c(c5)CN(C5CCC(=O)NC5=O)C7=O)C6)CC4)ncc3Cl)ccc2n(C(C)C)c1=O` (centres unmarked) [Compound 49, 2-{[6-({5-chloro-2-[4-({2-[2-(2,6-dioxopiperidin-3-yl)-1-oxo-2,3-dihydro-1H-isoindol-5-yl]-2-azaspiro[3.5]nonan-7-yl}oxy)piperidin-1-yl]pyrimidin-4-yl}amino)-2-oxo-1-(propan-2-yl)-1,2-dihydroquinolin-3-yl]oxy}-N-methylacetamide], the half-maximal degradation concentration (DC50) is less than 10 nM and the greatest degradation seen (Dmax) was 50 to 70%.
For `CNC(=O)COc1cc2cc(Nc3nc(N4CCC(CN5CCC6(CC5)CN(c5ccc7c(c5)C(=O)N(C5CCC(=O)NC5=O)C7=O)C6)CC4)ncc3Cl)ccc2n(C2CC2)c1=O` (centres unmarked) [Compound 50, 2-{[6-({5-chloro-2-[4-({2-[2-(2,6-dioxopiperidin-3-yl)-1,3-dioxo-2,3-dihydro-1H-isoindol-5-yl]-2,7-diazaspiro[3.5]nonan-7-yl}methyl)piperidin-1-yl]pyrimidin-4-yl}amino)-1-cyclopropyl-2-oxo-1,2-dihydroquinolin-3-yl]oxy}-N-methylacetamide] the same measures were less than 10 nM and 50 to 70%.
For `CNC(=O)COc1cc2cc(Nc3nc(N4CCC(F)(CN5CCC6(CC5)CN(c5ccc7c(c5)CN(C5CCC(=O)NC5=O)C7=O)C6)CC4)ncc3Cl)ccc2n(C(C)C)c1=O` (centres unmarked) [Compound 51, 2-{[6-({5-chloro-2-[4-({2-[2-(2,6-dioxopiperidin-3-yl)-1-oxo-2,3-dihydro-1H-isoindol-5-yl]-2,7-diazaspiro[3.5]nonan-7-yl}methyl)-4-fluoropiperidin-1-yl]pyrimidin-4-yl}amino)-2-oxo-1-(propan-2-yl)-1,2-dihydroquinolin-3-yl]oxy}-N-methylacetamide] the same measures were less than 10 nM and 50 to 70%.
In the case of `CNC(=O)COc1cc2cc(Nc3nc(N4CCC(F)(CN5CCC6(CC5)CN(c5cccc7c5CN(C5CCC(=O)NC5=O)C7=O)C6)CC4)ncc3Cl)ccc2n(C(C)C)c1=O` (centres unmarked) [Compound 52, 2-{[6-({5-chloro-2-[4-({2-[2-(2,6-dioxopiperidin-3-yl)-1-oxo-2,3-dihydro-1H-isoindol-4-yl]-2,7-diazaspiro[3.5]nonan-7-yl}methyl)-4-fluoropiperidin-1-yl]pyrimidin-4-yl}amino)-2-oxo-1-(propan-2-yl)-1,2-dihydroquinolin-3-yl]oxy}-N-methylacetamide], the half-maximal degradation concentration (DC50) was less than 10 nM and the maximal degradation (Dmax) was not below 70%.
For `CNC(=O)COc1cc2cc(Nc3nc(N4CCC(C(C)(C)N5CCC6(CCN(c7ccc8c(c7)CN(C7CCC(=O)NC7=O)C8=O)C6)C5)CC4)ncc3Cl)ccc2n(C(C)C)c1=O` (centres unmarked) [Compound 53] the same measures were less than 10 nM and 50 to 70%.
With `CNC(=O)COc1cc2cc(Nc3nc(N4CCC(CN5CC6(CCN(c7ccc8c(c7)CN(C7CCC(=O)NC7=O)C8=O)C6)CC5=O)CC4)ncc3Cl)ccc2n(C(C)C)c1=O` (centres unmarked) [Compound 54, 2-{[6-({5-chloro-2-[4-({7-[2-(2,6-dioxopiperidin-3-yl)-1-oxo-2,3-dihydro-1H-isoindol-5-yl]-3-oxo-2,7-diazaspiro[4.4]nonan-2-yl}methyl)piperidin-1-yl]pyrimidin-4-yl}amino)-2-oxo-1-(propan-2-yl)-1,2-dihydroquinolin-3-yl]oxy}-N-methylacetamide], the DC50 is less than 10 nM and the Dmax is less than 50%.

For the origin of these results see patent US11986532B2 (Arvinas Operations, Inc., priority 2021, dated 2024).
